# Test results from patent publication US7074780B2, “Substituted phenylcyclohexanecarboxamides and their use” (Bayer Aktiengesellschaft, priority 2000, dated 2006).
# Tested on: adenosine-uptake system
# Test: Inhibition of the adenosine uptake in rabbit erythrocytes
# Type: cell-based
# Conditions: Oryctolagus cuniculus, 0.25 h; rabbit erythrocyte preparation; concentration at which 50% of the adenosine originally employed is still present 15 min after addition of adenosine; 30° C.; read-out: IC50 (inhibition of functional adenosine uptake)
# Protocol: 2. Inhibition of the Adenosine Uptake in Rabbit Erythrocytes by the Compounds According to the Invention
# The capability of substances to influence the adenosine-uptake system is investigated by determining the inhibitory effect of the substances on functional adenosine uptake.
# For the functional adenosine-uptake test, an erythrocyte preparation from rabbit blood is used. The blood is drawn intravenously using citrate (3 ml Monovette 9NC from Sarstedt) as anticoagulant. The blood is centrifuged at 3000 g for 5 min and the erythrocytes are suspended in 10 mM 3-(N-morpholino)propanesulphonic acid buffer (MOPS)/0.9% NaCL solution pH7.4. The suspension is diluted to one hundredth of the original blood volume. In each case, 990 μl of the suspension are admixed with 10 μl of a suitable concentration of the substance to be investigated, and the mixture is incubated at 30° C. for 5 min. 5 μl of a 4 mM adenosine solution are then added, and the mixture is incubated at 30° C. for another 15 min. The samples are then centrifuged at 3000 g for 5 min and in each case 700 μl of the supernatant are admixed with 28 μl of 70% strength HClO4, allowed to stand in an ice bath for 30 min and centrifuged at 16,000 g for 3 min, and 350 μl of the sample are neutralized using 30 μl of 5N NaOH. 50 μl of the sample are applied to a column (Waters Symmetry C18 5 μm 3.9×150 mm). A Spherisorb ODS II 5 μm 4.6×10 mm column is used as precolumn. The mobile phase used is a gradient of […] KH2PO4/5 mM tributylamine pH7 (mobile phase A) and a mixture of mobile phase A/methanol 1/1 (mobile phase B). The gradient is from 10 to 40% B, at a flow rate of 0.5 ml/min. The adenosine which is present is quantified by its absorption at 260 nm, as are the hypoxanthine and inosine formed. The IC50 is the concentration of active compound at which, 15 min after addition of adenosine, 50% of the adenosine concentration originally employed is still present.
row,Structure (SMILES),IC50
1,"NC(=O)[C@@H](NC(=O)[C@@H]1CCCC[C@H]1c1ccc(CN(C(=O)N2CCOCC2)c2ccccc2)cc1)c1ccccc1 [Example 1-1, N-{4-[(1R,2R)-2-({[(1S)-2-Amino-2-oxo-1-phenylethyl]amino}carbonyl)cyclohexyl]benzyl}-N-phenyl-4-morpholinecarboxamide]",30 nM
2,CN(C)C(=O)N(Cc1ccc([C@@H]2CCCC[C@H]2C(=O)N[C@H](C(N)=O)c2ccccc2)cc1)c1ccccc1 [Example 1-3],20 nM
3,CN(C)C(=O)N(Cc1ccc([C@@H]2CCCC[C@H]2C(=O)N[C@H](C(N)=O)c2ccccc2)cc1)C1CC1 [Example 1-14],30 nM
4,CCN(CC)C(=O)N(Cc1ccc([C@@H]2CCCC[C@H]2C(=O)N[C@H](C(N)=O)c2ccccc2)cc1)c1ccccn1 [Example 1-33],40 nM

# Continued, values first:
row,IC50,Structure (SMILES)
1,20 nM,"CCN(CCO)C(=O)N(Cc1ccc([C@@H]2CCCC[C@H]2C(=O)N[C@H](C(N)=O)c2ccc(F)cc2)cc1)c1ccc(F)cc1 [Example 2-1, (1R,2R)-N-[(1S)-2-Amino-1-(4-fluorophenyl)-2-oxoethyl]-2-(4-{[{[ethyl(2-hydroxyethyl)amino]carbonyl}(4-fluorophenyl)amino]methyl}phenyl)cyclohexanecarboxamide]"
2,20 nM,"CCN(CCO)C(=O)N(Cc1ccc([C@@H]2CCCC[C@H]2C(=O)N[C@H](C(N)=O)c2ccccc2)cc1)c1ccccc1 [Example 2-18, (1R,2R)-N-[(1S)-2-Amino-1-phenyl-2-oxoethyl]-2-(4-{[{[ethyl(2-hydroxyethyl)-amino]carbonyl}(phenyl)amino]methyl}phenyl)cyclohexanecarboxamide]"
